{"source": "patent US20090181910A1", "about": "“METHOD OF PREVENTION AND ALLEVIATION OF TOXICITY BY MODULATION OF IRF3” (priority 2006, published 2009)", "key": {"[1]": {"test_system": "RXRα", "design": "species or system mice", "conditions": "mouse, in vivo"}, "[2]": {"test_system": "UGT1A6", "format": "cell-based, human", "conditions": "Huh7 cells with RXRα silenced by siRNA; ASA 20 μg/ml 24 hours"}, "[3]": {"test_system": "UGT1A6", "design": "species or system mice", "conditions": "mouse"}, "[4]": {"test_system": "Cyp3A11", "conditions": "mouse"}, "[5]": {"test_system": "Oatp2", "design": "species or system mice", "conditions": "mouse"}, "[6]": {"conditions": "mouse, in vivo"}, "[7]": {"conditions": "mouse, in vivo", "remark": "listed apart in the source"}, "[8]": {"test_system": "RXRα", "experiment": "BMM anti-RXRα Western blot", "format": "cell-based, Murine", "conditions": "for RXRα protein loss following polyI:C treatment: LG268 10 nM or GW3965 1 μM added to polyI:C 1 μg/ml, 24 hrs, FIG. 8d"}, "[9]": {"test_system": "ABCA1", "experiment": "RAW 264.7 Q-PCR: ABCA1", "format": "cell-based, murine", "conditions": "overexpression of Hes1 in RAW 264.7 cells; FIG. 10b"}, "[10]": {"test_system": "CRBPII", "experiment": "RAW 264.7 Q-PCR: CRBPII", "format": "cell-based, murine", "conditions": "overexpression of Hes1 in RAW 264.7 cells; FIG. 10b"}, "[11]": {"test_system": "RXRα", "format": "cell-based, Murine"}, "[12]": {"experiment": "H&E liver histology in APAP hepatotoxicity", "conditions": "pretreatment with PCN or ethanol, lower levels of APAP (175 mg/kg); FIG. 3B"}, "[13]": {"experiment": "Serum ALT in APAP hepatotoxicity"}, "[14]": {"test_system": "Cyp3A11", "experiment": "Liver RNA Q-PCR, polyI:C/APAP-treated mice: Cyp3A11", "conditions": "APAP 350 mg/kg i.p., 6 h"}, "[15]": {"test_system": "Cyp1A2", "experiment": "Liver RNA Q-PCR, polyI:C/APAP-treated mice: Cyp1A2", "conditions": "APAP 350 mg/kg i.p., 6 h"}, "[16]": {"conditions": "in adults; cited from earlier work"}, "[17]": {"conditions": "mouse, in vivo", "remark": "listed apart in the source"}, "[18]": {"experiment": "Survival following APAP treatment", "format": "in vivo, mice", "conditions": "PCN 75 mg/kg i.p. 24 h before APAP 175 mg/kg; FIG. 4C", "description": "FIG. 4: Percentage survival following APAP treatment with or without polyI:C. (A) Wildtype (n=8) fasted and were treated with 0.1% NaCl or polyI:C (100 μg) intravenous (i.v.) 24 hours prior to treatment with APAP (600 mg/kg) by intraperitoneal (i.p.) injection. (B) Wildtype and IRF3−/− (n=6-8) fasted and were treated with 0.1% NaCl or polyI:C (100 μg) intravenous (i.v.) 24 hours prior to treatment with APAP (600 mg/kg) by intraperitoneal (i.p.) injection. (C) Wildtype mice (n=6-8) fasted and were treated with 0.1% NaCl or polyI:C (100 μg) intravenous (i.v.) and PCN (75 mg/kg) intraperitoneal (i.p.) 24 hours prior to treatment with APAP (175 mg/kg) by intraperitoneal (i.p.) injection.\nAge and sex matched 6-9 week old mice were used for all experiments. C57/B16 mice were obtained from Jackson Laboratory. IRF3^−/− mice were obtained from Dr. T. Taniguchi. For APAP hepatotoxicity analysis, mice fasted for […] and then administered Vehicle (0.1% NaCl) or APAP (175-600 mg/kg) by intraperitoneal injection (i.p.). For serum and histological studies, mice were sacrificed at 6-7 hours post injection and serum and liver samples were retrieved. For survival studies, mice were studied for up to 5 days. For polyI:C studies, mice were also treated with 0.1% NaCl or polyI:C (100 μg) intravenous (i.v.) 12-24 hours prior to APAP treatment. To study the effects of PCN on APAP treatment, mice were treated with PCN (75 mg/kg) or control (1% DMSO, corn oil) by intraperitoneal (i.p.) 12-24 hours prior to APAP treatment. To study the effects of ethanol (EtOH) on APAP treatment, mice were given 20% EtOH in water ad libidum for 5 days prior to APAP therapy. PolyI:C treatment for these experiments occurred at Day 3 and Day 5. Serum alanine aminotransferase (ALT) levels were determined using manufacturer's protocol (TECO Diagnostics). For H&E staining, liver samples were fixed in formalin for 48 hours. H&E stainings were done by UCLA Tissue Procurement Core Laboratory (TPCL)."}, "[19]": {"conditions": "addition of PCN"}}, "note": "Entries after “also recorded” stand apart in the source; their conditions may differ. Where a SMILES comes first, the peptide text is derived from it. The star is where a group is joined. Cbz = O=C(OCc1ccccc1)*", "data": [{"compound": "CC(=O)Oc1ccccc1C(=O)O", "note": "[ASA, acetylsalicylic acid]", "values": [{"measurement": "RXRα protein in liver", "setting": "[1]", "result": "significant loss of RXRα protein"}, {"measurement": "UGT1A6 induction by ASA", "setting": "[2]", "result": "impaired"}, {"measurement": "UGT1A6 mRNA in vivo", "setting": "[3]", "result": "potently increased"}, {"measurement": "CYP3A11 mRNA in vivo", "setting": "[4]", "result": "potently increased"}, {"measurement": "Oatp2 mRNA in vivo", "setting": "[5]", "result": "not other PXR/RXR genes such as Oatp2"}, {"measurement": "blood glucose levels", "setting": "[6]", "result": "significantly decreased"}, {"measurement": "serum ALT", "setting": "[6]", "result": "increased"}, {"measurement": "serum ammonia", "setting": "[6]", "result": "increased"}, {"measurement": "total bilirubin levels", "setting": "[6]", "result": "increased"}, {"measurement": "hepatotoxicity (liver necrosis or fatty degeneration)", "setting": "[7]", "result": "caused severe hepatotoxicity as evidenced by liver necrosis or fatty degeneration"}, {"measurement": "hepatotoxicity from polyI:C plus ASA in knockout mice", "setting": "[7]", "result": "did not occur in IRF3^−/− mice, but did occur in IFNAR^−/− mice"}, {"measurement": "hepatotoxicity, agent alone", "setting": "[7]", "result": "did not cause significant hepatotoxicity"}]}, {"compound": "O=C(O)Cc1cccc(OCCCN(Cc2cccc(C(F)(F)F)c2Cl)CC(c2ccccc2)c2ccccc2)c1", "note": "[GW3965]", "values": [{"measurement": "RXRα protein loss following polyI:C treatment", "setting": "[8]", "result": "more obvious"}]}, {"compound": "CC1=C(/C=C/C(C)=C\\C=C\\C(C)=C\\C(=O)O)C(C)(C)CCC1", "note": "[9cRA, 9-cis retinoic acid]", "values": [{"measurement": "induction of ABCA1 by 9cRA", "setting": "[9]", "result": "prevents"}, {"measurement": "induction of CRBPII by 9cRA", "setting": "[10]", "result": "prevents"}]}, {"compound": "CC(/C=C/C(=O)NO)=C\\[C@@H](C)C(=O)c1ccc(N(C)C)cc1", "note": "[TSA, trichostatin A]", "values": [{"measurement": "effect on polyI:C repression of RXRα mRNA", "setting": "[11]", "result": "prevented polyI:C repression of RXRα, and allowed polyI:C to induce RXRα"}]}, {"compound": "CCO", "note": "[ethanol, Ethanol]", "values": [{"measurement": "cell necrosis (H&E)", "setting": "[12]", "result": "results in severe necrosis similar to higher doses of APAP"}, {"measurement": "sensitivity to APAP (serum ALT)", "setting": "[13]; 20% EtOH ad libidum 5 days, APAP 175 mg/kg, FIG. 2C", "result": "results in similar sensitivity to APAP as PCN treatment"}]}, {"compound": "CC(=O)Nc1ccc(O)cc1", "note": "[APAP, Acetaminophen]", "values": [{"measurement": "induction of Cyp3A11 by APAP", "setting": "[14]", "result": "does not"}, {"measurement": "induction of Cyp1A2 by APAP", "setting": "[15]", "result": "does not"}, {"measurement": "single acute toxic ingestion", "setting": "[16]", "result": "approximately 7 g"}]}, {"compound": "CC(C)C[C@@H](C=O)NC(=O)[C@H](CC(C)C)NC(=O)[C@H](CC(C)C)NC(=O)OCc1ccccc1", "note": "[MG132] (Cbz-Leu-Leu-Leu-aldehyde)", "values": [{"measurement": "RXRα protein loss after 9cRA and polyI:C co-stimulation", "setting": "[8]; MG132 10 μM, BMMs, FIG. 8f", "result": "prevented loss of RXRα protein"}]}, {"compound": "C[C@H](CCC(=O)O)[C@H]1CC[C@H]2[C@@H]3CC[C@@H]4C[C@H](O)CC[C@]4(C)[C@H]3CC[C@]12C", "note": "[LCA, Lithocholic acid]", "values": [{"measurement": "serum alanine aminotransferase (ALT) levels", "setting": "[17]", "result": "significant elevation of serum alanine aminotransferase (ALT) levels"}]}, {"compound": "CC(=O)[C@H]1[C@H](C#N)C[C@H]2[C@@H]3CC=C4C[C@@H](O)CC[C@]4(C)[C@H]3CC[C@@]21C", "note": "[PCN, Pregnenolone 16alpha-carbonitrile]", "values": [{"measurement": "cell necrosis (H&E)", "setting": "[12]", "result": "results in severe necrosis similar to higher doses of APAP"}, {"measurement": "RXRα protein expression in liver", "setting": "[1]", "result": "further loss of RXRα protein expression; also recorded: potent loss of RXRα protein"}, {"measurement": "UGT1A6 mRNA in vivo", "setting": "[3]", "result": "potently increased"}, {"measurement": "hepatotoxicity as measured by serum ALT", "setting": "[13]; PCN 75 mg/kg i.p. 24 h before APAP 175 mg/kg, FIG. 2B", "result": "caused less toxic levels of APAP to result in severe hepatotoxicity"}, {"measurement": "sensitivity to APAP (survival)", "setting": "[18]", "result": "increases sensitivity to lower levels of APAP"}, {"measurement": "CYP3A11 mRNA in vivo", "setting": "[4]", "result": "potently increased"}, {"measurement": "LCA-induced serum ALT with PCN co-treatment", "setting": "[17]", "result": "reduced"}, {"measurement": "Oatp2 mRNA in vivo", "setting": "[5]", "result": "not other PXR/RXR genes such as Oatp2"}, {"measurement": "protection from VSV plus LCA-induced hepatotoxicity", "setting": "[19]", "result": "could not be blocked"}]}, {"compound": "Cc1cc2c(cc1C1(c3ccc(C(=O)O)cn3)CC1)C(C)(C)CCC2(C)C", "note": "[LG268]", "values": [{"measurement": "RXRα protein loss following polyI:C treatment", "setting": "[8]", "result": "more obvious"}]}]}
